{
  "source": "patent US10583171B2",
  "about": "“NMDAR antagonists for the treatment of diseases associated with angiogenesis” (INSERM (Institut National de la Sante et de la Recherche …, priority 2015, dated 2020)",
  "format_in_all_cases": "cell-based, human",
  "key": {"[1]": {"tested_on": "hPMVEC", "assay": "In vitro angiogenesis Matrigel assay with hPMVEC", "conditions": "4 hours, 100 μM (+)-MK-801 maleate or 50 μM DAP-V (FIG. 1g, FIG. 2f)", "description": "Matrigel assays were performed on μ-slide angiogenesis (IBIDI, Martinsried, Germany). 100 μL of phenol-red free matrigel matrix (BD, Franklin lakes, N.J., USA) were put in each wells and slides were incubated during 30 min at 37° C. Then, 50 μL of EGM2-MV medium with our without NMDAR antagonists (100 μM (+)-MK-801 maleate or 50 μM DAP-V, both from ABCAM BIOCHEMICALS, Cambridge, UK) were added on matrigel gels during 1 hour. 3500 hPMVEC were seeded in each well in presence or absence of NMDAR antagonists. After 4 hours, bright-field images of capillary-like structures were captured using Eclipse 80i microscope coupled to Nis Elements BR2.30 software. Images were then automatically analyzed with “Angiogenesis analyzer” plugin for ImageJ software resulting in total tube length and total number of nodes determination."}, "[2]": {"tested_on": "hPMVEC", "assay": "hPMVEC proliferation (BrdU incorporation) stimulated by VEGF-A or FBS", "conditions": "for hPMVEC proliferation stimulated by FBS 10%: antagonist 10 μM to 100 μM, no exogenous NMDAR agonists (FIG. 2e); for hPMVEC proliferation stimulated by VEGF-A: VEGF-A 10 ng·ml^−1, antagonist 10 μM to 100 μM, no exogenous NMDAR agonists (FIG. 1f)", "description": "FIG. 1: Activation of endothelial cell NMDAR contributes to vascular remodeling in the development of pulmonary hypertension. • (a) The table summarizes quantitation of total membrane GluN1 i.e NMDAR available for activation, in endothelial cells and also specifically in synaptic-like contact (defined as a close contact […] between two endothelial cells without junctions). A concentration index of GluN1 in the synaptic-like contacts was determined calculating the ratio of the percent of membrane GluN1 in these synaptic-like contacts divided by the percent of synaptic contact length. • (b) Quantitative RT-PCR analysis of GRIN1 gene expression from total RNA of CD31+ cells and CD31− cells isolated from the lungs of wild-type mice (n=4) and knocked-out mice (n=4) for the NMDAR in ECs showing efficiency of Grin1 knockout in ECs. Grin1 gene expression is normalized to Actinb gene expression. Values are normalized to those of WT mice. • (c) Right Ventricular Systolic Pressure (RVSP) measurement in wild-type (n=11-12) and knocked-out mice for the NMDAR in ECs (n=17-18) after 3 weeks of normoxia or chronic hypoxia (FiO2: 10%). • (d) Ratio of right ventricular weight to left ventricular plus septum weight (Fulton index) measured in wild-type (n=12) or knocked-out mice for the NMDAR in ECs (n=19-20) after 3 weeks of normoxia or chronic hypoxia (FiO2: 10%). Same experiment as in c). • (e) Morphometric analysis of pulmonary vessels in wild-type or knocked-out mice for the NMDAR in ECs after 3 weeks of normoxia or chronic hypoxia (FiO2: 10%). Same experiment as in c) and d). […] 100 vessels were analyzed for each group (20 vessels per group and per mice). […] On the left automatic quantification of total tube length and total number of nodes using the “Angiogenesis analyzer” plugin from ImageJ software on a total of 7-8 images (1 image/replicate, each image covering nearly all the well area). Values are expressed as percent of control. […] Statistical significance was determined by Mann Whitney test (b), regular two-way ANOVA followed by Bonferonni's test (c-e), one-way ANOVA followed by Bonferonni's multiple comparison test (f, h) or Student's t test (g). *p<0.05, ***p<0.001 compared to WT/control (b-e, g, h) or ^§§§ p<0.001 compared to control, *p<0.05, ***p<0.001 compared to VEGF (f). […]\nFIG. 2: Supplementary figures about activation of endothelial cell NMDAR contributes to vascular remodeling in the development of pulmonary hypertension. • (a) Quantitation of total GluN1-associated immunogold particles per 100 μm^2 of endothelial cells in arteries from a control patient, and in an intimal lesion and plexiform lesion from a PAH patient. • (b) Genotyping of Tek-creXGrin1 mice. […]"}, "[3]": {"tested_on": "hPMVEC", "assay": "hPASMC/hPMVEC co-culture model of angiogenesis", "conditions": "hPMVECs and hPASMCs co-culture, 15 days, CD31 staining; 10 to 100 μM (FIG. 1h, FIG. 2g)", "description": "For the hPASMC/hPMVEC co-culture model of angiogenesis, 20000 PASMC were seeded on glass coverslips in a 12-well plate (CORNING, Tewksbury, Mass., USA) and cultured until confluence in SmGm2 complete medium. […] Medium was changed every 2 to 3 days and after 15 days of co-culture, cells were fixed and CD31 was stained. After staining, 5×5 images of each coverslip were captured using mosaic mode of acquisition with a Zeiss Axio Observer Z1 microscope coupled to Axiovision 4.8 software (both from CARL ZEISS, Oberkochen, Germany). Images were analysed using ImageJ software in order to calculate the CD31 staining area to the total cell area ratio. This ratio was further named as the total tube length. Automatic quantitation was also achieved using AngioQuant software^70 to determine total tube length."}, "[4]": {"tested_on": "hPASMCs", "assay": "hPASMC proliferation induced by PDGF-BB", "conditions": "PDGF-BB stimulation, no NMDAR agonist added to the medium", "procedure": "For hPASMC culture, 250 000 cells were seeded in T75 flasks (BD Falcon, CORNING, Tewksbury, Mass., USA) and grown in the SmGm2 complete medium containing SmBm basal medium and also basic fibroblast growth factor, epidermal growth factor, insulin and gentamycin/amphotericin 1× (all from LONZA, Basel, Switzerland).\nAs proliferation of hPASMCs is a crucial determinant of vascular remodeling associated to increased pulmonary vascular resistance and pressure, we analyzed the role of NMDAR activation in hPASMCs proliferation. […] Thus, we explored the potential of PDGF-BB to phosphorylate GluN1 in hPASMCs on Ser896, a site phosphorylated in pulmonary arteries of PAH patients."}},
  "data": [
    {"molecule": "N[C@H](CCCP(=O)(O)O)C(=O)O", "note": "[DAP-5, 2-amino-5-phosphonopentanoïc acid]", "values": [
      {"measurement": "number of nodes", "setting": "[1]", "value": "decrease"},
      {"measurement": "total tube length formation", "setting": "[1]", "value": "decrease"}
    ]},
    {"molecule": "C[C@@]12N[C@@H](Cc3ccccc31)c1ccccc12", "note": "[MK-801, [5R,10S]-[+]-5-methyl-10,11-dihydro-5H-dibenzo[a,d]cyclohepten-5,10-imine]", "values": [
      {"measurement": "hPMVEC proliferation stimulated by FBS 10%", "setting": "[2]", "value": "dose-dependently inhibit"},
      {"measurement": "hPMVEC proliferation stimulated by VEGF-A", "setting": "[2]", "value": "dose-dependently inhibit"},
      {"measurement": "number of nodes", "setting": "[1]", "value": "decrease"},
      {"measurement": "total tube length formation", "setting": "[1]", "value": "decrease"},
      {"measurement": "formation of the endothelial tube network", "setting": "[3]", "value": "dose-dependently inhibits"}
    ]},
    {"molecule": "CC12CC3CC(C)(C1)CC(N)(C3)C2", "note": "[memantine, 3,5-dimethyladamantan-1-amine]", "values": [
      {"measurement": "hPASMCs proliferation induced by PDGF-BB", "setting": "[4]", "value": "dose-dependent inhibition"},
      {"measurement": "hPMVEC proliferation stimulated by FBS 10%", "setting": "[2]", "value": "dose-dependently inhibit"},
      {"measurement": "hPMVEC proliferation stimulated by VEGF-A", "setting": "[2]", "value": "dose-dependently inhibit"}
    ]}
  ]
}
